Results on seven compounds are retold here after ChEMBL document CHEMBL5230129, “Antibacterial activities with the structure-activity relationship of coumarin derivatives” (2020).

What all share (assay type): functional
Assay [1] relates to Staphylococcus aureus. The assay can be described thus: Antibacterial activity against Staphylococcus aureus ATCC 25923 assessed as zone of inhibition incubated for 24 hrs by paper disk method.
For assay [2], the system named is Bacillus subtilis. The experiment in a line: Antibacterial activity against Bacillus subtilis ATCC 10876 assessed as zone of inhibition incubated for 24 hrs by paper disk method.
Assay [3] deals with Escherichia coli. The experiment in a line: Antibacterial activity against Escherichia coli ATCC 25922 assessed as zone of inhibition incubated for 24 hrs by paper disk method.
Assay [4] relates to Pseudomonas aeruginosa. The assay can be described thus: Antibacterial activity against Pseudomonas aeruginosa ATCC 27853 assessed as zone of inhibition incubated for 24 hrs by paper disk method.
For assay [5], the system named is Micrococcus luteus. The experiment in a line: Antibacterial activity against Micrococcus luteus ATCC 9341 assessed as inhibition of bacterial growth incubated for 20 hrs by broth doubling dilution assay.
The test system of assay [6] is Bacillus cereus. The experiment in a line: Antibacterial activity against Bacillus cereus ATCC 10702 assessed as inhibition of bacterial growth incubated for 20 hrs by broth doubling dilution assay.
In assay [7] the test system is Staphylococcus epidermidis. The experiment in a line: Antibacterial activity against Staphylococcus epidermidis ATCC 12228 assessed as inhibition of bacterial growth incubated for 20 hrs by broth doubling dilution assay.
Assay [8] relates to Staphylococcus aureus. The assay can be described thus: Antibacterial activity against Staphylococcus aureus ATCC-29213 assessed as inhibition of bacterial growth incubated for 16 hrs by agar-well diffusion assay.
In assay [9] the test system is Staphylococcus aureus. The experiment in a line: Antibacterial activity against Staphylococcus aureus MTCC 3160 assessed as inhibition of bacterial growth by broth micro dilution assay.
Assay [10] has as its system Pseudomonas. The experiment in a line: Antibacterial activity against Pseudomonas assessed as zone of inhibition.
Assay [11] concerns Pseudomonas aeruginosa. The assay can be described thus: Antibacterial activity against Pseudomonas aeruginosa MTCC 1034 assessed as inhibition of bacterial growth by broth micro dilution assay.
The test system of assay [12] is Escherichia coli. The experiment in a line: Antibacterial activity against Escherichia coli assessed as inhibition of bacterial growth relative to control.
Assay [13] concerns Staphylococcus aureus. The experiment in a line: Antibacterial activity against Staphylococcus aureus MTCC 96 assessed as inhibition of bacterial growth incubated for 18 to 20 hrs by broth microdilution assay. Conditions: time 18-20 hrs.
Assay [14] concerns Bacillus subtilis. The experiment in a line: Antibacterial activity against Bacillus subtilis assessed as inhibition of bacterial growth relative to control.
Assay [15] deals with Staphylococcus aureus. The experiment in a line: Antibacterial activity against Staphylococcus aureus assessed as inhibition of bacterial growth by broth micro dilution assay.
Assay [16] relates to Bacillus. The experiment in a line: Antibacterial activity against Bacillus assessed as inhibition of bacterial growth by broth micro dilution assay.
In assay [17] the test system is Staphylococcus aureus. The assay can be described thus: Antibacterial activity against Staphylococcus aureus assessed as inhibition of bacterial growth by broth dilution assay.
Assay [18] relates to Bacillus subtilis. The experiment in a line: Antibacterial activity against Bacillus subtilis assessed as inhibition of bacterial growth by broth dilution assay.
In assay [19] the test system is Escherichia coli. The assay can be described thus: Antibacterial activity against Escherichia coli MTCC 443 assessed as inhibition of bacterial growth incubated for 18 to 20 hrs by broth microdilution assay. To be noted: time 18-20 hrs.
For assay [20], the system named is Pseudomonas aeruginosa. The experiment in a line: Antibacterial activity against Pseudomonas aeruginosa assessed as inhibition of bacterial growth incubated for 24 hrs by broth microdilution assay.
For assay [21], the system named is Escherichia coli. The experiment in a line: Antibacterial activity against Escherichia coli MTCC 1586 assessed as zone of inhibition incubated overnight by Kirby-Bauer disc diffusion method.
Assay [22] has as its system Bacillus cereus. The experiment in a line: Antibacterial activity against Bacillus cereus MTCC 430 assessed as zone of inhibition incubated overnight by Kirby-Bauer disc diffusion method.
Assay [23] relates to Staphylococcus aureus. The experiment in a line: Antibacterial activity against Staphylococcus aureus MTCC 740 assessed as zone of inhibition incubated overnight by Kirby-Bauer disc diffusion method.
Assay [24] has as its system Escherichia coli. The assay can be described thus: Antibacterial activity against Escherichia coli assessed as inhibition of bacterial growth.
The test system of assay [25] is Bacillus cereus. The experiment in a line: Antibacterial activity against Bacillus cereus ATCC-14579 assessed as zone of inhibition incubated for 24 hrs by paper disk diffusion assay.
Assay [26] concerns Staphylococcus aureus. The experiment in a line: Antibacterial activity against Staphylococcus aureus NCTC-7447 assessed as zone of inhibition incubated for 24 hrs by paper disk diffusion assay.
Assay [27] deals with Staphylococcus aureus. The experiment in a line: Antibacterial activity against Staphylococcus aureus assessed as zone of inhibition incubated for 24 hrs by agar diffusion assay.
The test system of assay [28] is Bacillus subtilis. The experiment in a line: Antibacterial activity against Bacillus subtilis assessed as zone of inhibition incubated for 24 hrs by agar diffusion assay.
Assay [29] deals with Proteus vulgaris. The assay can be described thus: Antibacterial activity against Proteus vulgaris assessed as zone of inhibition incubated for 24 hrs by agar diffusion assay.

≈ marks a conversion by molar mass, not a printed value.

Turning to `NCC[C@H](O)C(=O)N[C@@H]1C[C@H](N)[C@@H](O[C@H]2O[C@H](CN)[C@@H](O)[C@H](O)[C@H]2O)[C@H](O)[C@H]1O[C@H]1O[C@H](CO)[C@@H](O)[C@H](N)[C@H]1O` [AMIKACIN], the “inhibition zone (IZ)” value in [1] came to 20 mm; in assay [2], 18 mm; in assay [3] it was 17 mm; in assay [4], 17 mm.
With `Cc1c(O)c(C(=O)CCc2ccccc2)c2oc(=O)cc(-c3ccccc3)c2c1O`, the MIC was 2 µg/mL (≈ 4.99 µM) in assay [5], 2 µg/mL (≈ 4.99 µM) in [6] and 1 µg/mL (≈ 2.5 µM) in assay [7].
As to `O=C(O)c1cn(C2CC2)c2cc(N3CCNCC3)c(F)cc2c1=O` [CIPROFLOXACIN], the MIC in assay [8] was determined as 10 µg/mL (≈ 30.2 µM); in assay [9], 1.6 µg/mL (≈ 4.83 µM); in assay [11], 1.6 µg/mL (≈ 4.83 µM); in [13], 50 µg/mL (≈ 151 µM); in assay [15] it was 2 µg/mL (≈ 6.04 µM); in assay [16], 2 µg/mL (≈ 6.04 µM). In addition, the MIC in [17] stood at 2 µg/mL (≈ 6.04 µM); in assay [18], 2 µg/mL (≈ 6.04 µM); in assay [19], 25 µg/mL (≈ 75.4 µM); in [20], 49 µg/mL (≈ 148 µM). For the same compound, the inhibition zone (IZ) in assay [10] worked out at 7.5 mm. For the same compound, the “inhibition (INH)” value in [12] and in assay [14] was 100% throughout.
For the compound `CC[N+](CC)(CC)CCCCCCCCCCCCNCc1cn(Cc2cc(=O)oc3cc4c(cc23)CCC(C)(C)O4)nn1.[Br-]`, the “inhibition zone (IZ)” value in assay [21] amounted to 8 mm; in [22] it was 24 mm; in [23], 6 mm.
As for `COc1ccc(C(=O)C(c2c(O)c3ccccc3oc2=O)N2CCCCC2)cc1` (centres undefined), the MIC in assay [24] amounted to 6.25 µg/mL (≈ 15.9 µM).
For `O=c1oc2ccccc2c(O)c1-c1ccn(-c2ccccc2)n1`, the “inhibition zone (IZ)” value in assay [25] stood at 16 mm; in assay [26], 20 mm.
For the compound `O=C(/C=C/c1cc(/N=N\c2ccc(Cl)cc2)ccc1O)c1cc2ccccc2oc1=O`, the “inhibition zone (IZ)” value in [27], in assay [28] and in [29] was above 17 mm each time.
